Values after ≈ are worked out from the molar mass of the structure shown.
What was measured:
KB [1] = assay: Cytotoxic activity against vincristine-resistant human oral epidermoid carcinoma cell line (KB/VJ300); type: functional, cell-based
KB [2] = assay: Cytotoxic activity against vincristine-sensitive human oral epidermoid carcinoma cell line(KB/S); type: functional, cell-based

SMILES | IC50 (KB [1]) | IC50 (KB [2])
CC[C@H]1C[C@@H]2CN3CC[C@]4(O)C(=Nc5ccccc54)[C@](C(=O)OC)(C2)[C@H]13 [CORONARIDINE HYDROXYINDOLENINE] | > 25 µg/mL | > 25 µg/mL
CC[C@H]1C[C@@H]2C[C@@]3(C(=O)OC)c4c(c5ccccc5n4C2O)CCN[C@@H]13 (some centres not stated) | 2.5 µg/mL (≈ 7.05 µM) | 3.5 µg/mL (≈ 9.87 µM)
COC(=O)[C@@]12C[C@@H]3C[C@H]([C@H](C)O)[C@@H]1N(CCc1c2[nH]c2ccccc12)C3 | 8.5 µg/mL (≈ 24 µM) | > 25 µg/mL
CC[C@H]1C[C@H](CO)C[C@@]2(C(=O)OC)c3[nH]c4ccccc4c3CCN[C@@H]12 | > 25 µg/mL | > 25 µg/mL
CCOC1[C@H]2C[C@H]([C@@H](C)O)[C@@H]3N1CCc1c([nH]c4ccccc14)[C@]3(C(=O)OC)C2 (some centres not stated) | > 25 µg/mL | > 25 µg/mL
CC[C@H]1C[C@H]2C[C@@]3(C(=O)OC)c4[nH]c5cc(OC)ccc5c4CCN(C2C#N)[C@@H]13 (some centres not stated) | 1.1 µg/mL (≈ 2.8 µM) | 1.9 µg/mL (≈ 4.83 µM)
CC[C@H]1C[C@H]2C[C@@]3(C(=O)OC)c4[nH]c5ccccc5c4CCN(C2C#N)[C@@H]13 (some centres not stated) | 1.4 µg/mL (≈ 3.85 µM) | 2.2 µg/mL (≈ 6.05 µM)
COC(=O)[C@]12C[C@H]3CC4[C@H](C)OCN(CCc5c1n(c1cc(OC)ccc51)C3=O)[C@@H]42 (some centres not stated) | > 25 µg/mL | > 25 µg/mL
CCOC1[C@H]2C[C@H]([C@H](C)O)[C@@H]3N1CCc1c([nH]c4ccccc14)[C@]3(C(=O)OC)C2 (some centres not stated) | > 25 µg/mL | > 25 µg/mL
COC(=O)[C@]12C[C@H]3CC4[C@H](C)OCN(CCc5c1n(c1ccccc51)C3O)[C@@H]42 (some centres not stated) | 4 µg/mL (≈ 10.5 µM) | 25 µg/mL (≈ 65.4 µM)
CC[C@H]1C[C@@H]2CN3CCc4c([nH]c5cc(OC)ccc45)[C@](C(=O)OC)(C2)[C@H]13 [ISOVOACANGINE] | > 25 µg/mL | > 25 µg/mL
COC(=O)[C@@]12C[C@@H]3C[C@@H]([C@H](C)O)[C@@H]1NCCc1c2n(c2cc(OC)ccc12)[C@H]3O | > 25 µg/mL | > 25 µg/mL
COC(=O)N1c2ccccc2C23CCN4CCCC5(CCC12[C@](O)(C(=O)OC)C5)[C@H]43 (some centres not stated) | 0.64 µg/mL (≈ 1.55 µM) | > 25 µg/mL
COC(=O)[C@@]12C[C@@H]3C[C@H](C(C)(O)O)[C@@H]1N(CCc1c2[nH]c2cc(OC)ccc12)C3 | 14.5 µg/mL (≈ 36.2 µM) | > 25 µg/mL
COC(=O)[C@@]12C[C@@H]3C[C@H]([C@H](C)O)[C@@H]1N(CCc1c2[nH]c2cc(OC)ccc12)C3 [ISOVOACRISTINE] | 18.8 µg/mL (≈ 48.9 µM) | > 25 µg/mL
COC(=O)[C@@]12C[C@@H]3C[C@H]([C@@H](C)O)[C@@H]1N(CCc1c2[nH]c2ccccc12)C3=O | > 25 µg/mL | > 25 µg/mL
CCC1C[C@H]2C[C@@]3(C(=O)OC)c4[nH]c5ccccc5c4CCN(C2=O)[C@@H]13 (some centres not stated) | > 25 µg/mL | > 25 µg/mL
CC[C@H]1C[C@@H]2CN3CCc4c([nH]c5ccc(OC)cc45)[C@](C(=O)OC)(C2)[C@H]13 [VOACANGINE] | > 25 µg/mL | > 25 µg/mL
COC(=O)[C@@]12C[C@@H]3C[C@H]([C@@H](C)O)[C@@H]1N(CCc1c2[nH]c2cc(OC)ccc12)C3 | > 25 µg/mL | > 25 µg/mL
COC(=O)[C@@]12C[C@H]3C[C@@H](C(C)=O)[C@@H]1NCCc1c2n(c2ccccc12)C3O (some centres not stated) | 2 µg/mL (≈ 5.43 µM) | 25 µg/mL (≈ 67.9 µM)
C[C@H](O)[C@H]1C[C@H]2C[C@H]3c4[nH]c5ccccc5c4CCN(C2)[C@@H]13 | 7.8 µg/mL (≈ 26.3 µM) | 16.1 µg/mL (≈ 54.3 µM)
COC(=O)[C@@]12C[C@@H]3C[C@H]([C@@H](C)O)[C@@H]1N(CCc1c2[nH]c2ccccc12)C3 | 3.5 µg/mL (≈ 9.87 µM) | 25 µg/mL (≈ 70.5 µM)
CC[C@H]1C[C@@H]2CN3CCc4c([nH]c5ccccc45)C(C)(C2)[C@H]13 | > 25 µg/mL | > 25 µg/mL
CC[C@H]1C[C@@H]2CN3CCc4c([nH]c5ccccc45)[C@](C(=O)OC)(C2)[C@H]13 [CORONARIDINE] | 2.6 µg/mL (≈ 7.68 µM) | 11.5 µg/mL (≈ 34 µM)
CC[C@H]1C[C@H]2C[C@@]3(C(=O)OC)c4[nH]c5ccc(OC)cc5c4CCN(C2C#N)[C@@H]13 (some centres not stated) | 7 µg/mL (≈ 17.8 µM) | 9.4 µg/mL (≈ 23.9 µM)
CCOC1[C@H]2C[C@H](CC)[C@@H]3N1CCc1c([nH]c4ccccc14)[C@]3(C(=O)OC)C2 (some centres not stated) | 13 µg/mL (≈ 34 µM) | > 25 µg/mL
